Laboratory results: US10940139B2, “Compounds that interact with the Ras superfamily for the treatment of cancers, inflammatory diseases, rasopathies, and fibrotic disease” (Shy Therapeutics LLC, priority 2017, dated 2021)
Where two headings read alike, the source gives them in different places.

Experiments:
Assay in all cases: Ras GTP binding domain inhibition assay (labeled GTP)
[1] = target: KRas G12D/Q61H double mutant (Homo sapiens (Human), UniProt P01116, G12D/Q61H); conditions: for inhibition at 20 µM: 20 μM compound
In short: (§1)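 Fluorescence read-out of Cy3-/Cy5-GTP remaining bound to nickel-immobilized His-KRas after washes. Protein was coated overnight at 4° C, then exposed to compound for 3 h at room temperature before a 45 min labeled-GTP incubation.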

KRas Q61H mutant = KRas Q61H mutant (Homo sapiens (Human), UniProt P01116, Q61H); conditions: 20 μM compound
In short: as §1

[2] = target: KRas G12C/Q61H double mutant (Homo sapiens (Human), UniProt P01116, G12C/Q61H); conditions: 20 μM compound
In short: as §1

[3] = KRas G12D/Q61H double mutant, read-out: % Inhibition at 20 μM of K-Ras mutant and wild-type protein, KRas G12D Q61H
[4] = KRas Q61H, read-out: % Inhibition at 20 μM of K-Ras mutant and wild-type protein, KRas Q61H
[5] = KRas G12C/Q61H double mutant, read-out: % Inhibition at 20 μM of K-Ras mutant and wild-type protein, KRas G12C Q61H
[6] = read-out: % Inhibition at 20 μM KRas G12D Q61H
[7] = read-out: % Inhibition at 20 μM KRas Q61H
[8] = read-out: % Inhibition at 20 μM KRas G12C Q61H

KRas Q61H mutant, sequence (P01116-2 other isoform, or with tags, fused parts or gaps Q61H): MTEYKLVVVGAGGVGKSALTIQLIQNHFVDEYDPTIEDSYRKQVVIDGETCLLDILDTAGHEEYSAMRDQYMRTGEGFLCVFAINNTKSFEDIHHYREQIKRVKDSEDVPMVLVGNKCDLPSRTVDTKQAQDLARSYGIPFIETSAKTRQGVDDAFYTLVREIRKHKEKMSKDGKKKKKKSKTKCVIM
KRas G12D/Q61H double mutant, sequence (P01116-2 other isoform, or with tags, fused parts or gaps G12D/Q61H): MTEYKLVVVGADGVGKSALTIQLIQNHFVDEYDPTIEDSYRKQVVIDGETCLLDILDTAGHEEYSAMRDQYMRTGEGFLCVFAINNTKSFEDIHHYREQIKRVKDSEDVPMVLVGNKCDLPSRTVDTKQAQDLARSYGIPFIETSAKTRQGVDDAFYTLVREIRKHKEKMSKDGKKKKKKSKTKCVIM
KRas G12C/Q61H double mutant, sequence (P01116-2 other isoform, or with tags, fused parts or gaps G12C/Q61H): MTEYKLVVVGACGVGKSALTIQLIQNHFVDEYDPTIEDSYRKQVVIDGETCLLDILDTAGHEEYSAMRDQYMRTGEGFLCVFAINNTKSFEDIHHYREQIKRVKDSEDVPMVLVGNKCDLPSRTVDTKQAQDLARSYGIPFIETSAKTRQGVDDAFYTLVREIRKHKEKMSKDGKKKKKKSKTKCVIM

inhibition at 20 µM [1, 3] [%]	inhibition at 20 µM (KRas Q61H mutant; [4]) [%]	inhibition at 20 µM [2, 5] [%]	inhibition at 20 µM [1, 6] [%]	inhibition at 20 µM (KRas Q61H mutant; [7]) [%]	inhibition at 20 µM [2, 8] [%]	SMILES	IC50 ([1]; serial dilution, read-out: KRas G12D Q61H (classes E-H, IC50)) [µM]
			1 to 25	25 to 50	1 to 25	COc1ccncc1CCNC(=O)c1csc2nc(-c3ccccn3)nc(N3CCOCC3)c12 [drawing 2780]	
51 to 75	76 to 100	51 to 75				Cc1c(-c2csc3c(O)nc(-c4ccccn4)nc23)cnn1C [drawing 3505]	
1 to 25	1 to 25	1 to 25				COCCNc1nc(-c2ccccn2)nc(-c2cccc(OCCN(C)C)c2)c1Oc1ccccc1 [drawing 3529]	
			1 to 25	51 to 75	51 to 75	Cc1cnc(-c2ccccn2)nc1NC(=O)C(C)c1ccc(C#N)cc1 (stereo not shown) [drawing 2797]	
			1 to 25	1 to 25	1 to 25	Nc1nc(-c2ccccn2)nc2c(-c3ccccc3Cl)csc12 [drawing 2835]	
			25 to 50	76 to 100	51 to 75	O=C(c1csc2c(O)nc(-c3ccccn3)nc12)N1CCNC(c2ccccc2Cl)C1 (stereo not shown) [drawing 2806]	
			25 to 50	1 to 25	1 to 25	Cc1sc2c(N)nc(-c3ccccn3)nc2c1-c1ccccc1 [drawing 2837]	
51 to 75	51 to 75	76 to 100				COC(=O)c1nc(-c2ccccn2)nc(O)c1O [drawing 3547]	
			1 to 25	51 to 75	25 to 50	O=C(c1csc2c(O)nc(-c3ccccn3)nc12)N1CCOC(c2cccc(Cl)c2)C1 (stereo not shown) [drawing 2770]	
			25 to 50	1 to 25	1 to 25	O=C(c1csc2c(O)nc(-c3ccccn3)nc12)N1CCOC(c2cccc(F)c2)C1 (stereo not shown) [drawing 2732]	
1 to 25	1 to 25	1 to 25				Oc1nc(-c2ccccn2)nc2cc(-c3ccc(-c4ccccc4)cc3)sc12 [drawing 3559]	
1 to 25	1 to 25	1 to 25				Cc1ccc(-c2csc3c(O)nc(-c4ccccn4)nc23)cc1 [drawing 3560]	
0	1 to 25	1 to 25				NC(=O)C1CCCN1C(=O)c1cccc(-c2cc3nc(N)nc(O)c3s2)c1 (stereo not shown) [drawing 3544]	
			51 to 75	51 to 75	51 to 75	O=C(c1csc2c(O)nc(-c3ccccn3)nc12)N1CCNC(Cc2ccc(F)cc2)C1 (stereo not shown) [drawing 2831]	
			1 to 25	25 to 50	25 to 50	N#Cc1cccc(N2CCN(C(=O)c3csc4c(O)nc(-c5ccccn5)nc34)CC2)c1 [drawing 2755]	
1 to 25	1 to 25	1 to 25				COc1ccc(-c2cc3nc(-c4ccccn4)nc(O)c3s2)cc1 [drawing 3563]	
			1 to 25	25 to 50	25 to 50	COc1ncc(CCNC(=O)c2csc3nc(-c4ccccn4)nc(N4CCOCC4)c23)cn1 [drawing 2748]	
			1 to 25	51 to 75	51 to 75	CC(C)(C(=O)Nc1ccnc(-c2ccccn2)n1)c1ccc(C#N)cc1 [drawing 2751]	

inhibition at 20 µM [1, 3] [%]	inhibition at 20 µM (KRas Q61H mutant; [4]) [%]	inhibition at 20 µM [2, 5] [%]	inhibition at 20 µM [1, 6] [%]	inhibition at 20 µM (KRas Q61H mutant; [7]) [%]	inhibition at 20 µM [2, 8] [%]	SMILES	IC50 ([1]; serial dilution, read-out: KRas G12D Q61H (classes E-H, IC50)) [µM]
			0	1 to 25	25 to 50	O=C(NCCc1ccc(O)c(O)c1)c1csc2nc(-c3ccccn3)nc(N3CCOCC3)c12 [drawing 2785]	
			25 to 50	51 to 75	51 to 75	Nc1nc(-c2ccccn2)nc2scc(C(=O)O)c12 [drawing 2906]	
			0	25 to 50	1 to 25	COc1cc(N2CCN(C(=O)c3csc4c(O)nc(-c5ccccn5)nc34)CC2)cc(OC)c1OC [drawing 2758]	
25 to 50	51 to 75	51 to 75				COC(=O)c1sc2c(O)nc(-c3ccccn3)nc2c1C [drawing 3476]	
1 to 25	1 to 25	1 to 25				Cn1cnc(-c2nc(O)c3c(-c4ccccc4)c(-c4ccc(CNC(=O)OC(C)(C)C)cc4)sc3n2)c1 [drawing 3537]	
			1 to 25	51 to 75	51 to 75	COc1ccc(N2CCN(C(=O)c3csc4c(O)nc(-c5ccccn5)nc34)CC2)cc1O [drawing 2802]	
			1 to 25	25 to 50	1 to 25	COCCCCNC(=O)c1csc2nc(-c3ccccn3)nc(N3CCOCC3)c12 [drawing 2789]	
			51 to 75	51 to 75	51 to 75	Oc1nc(-c2ccccn2)nc2c(-c3ccccc3OC3CCCCC3)csc12 [drawing 2866]	
1 to 25	0	0				COc1nc(-c2ccccn2)nc2c(C3CC3)csc12 [drawing 3489]	
1 to 25	1 to 25	0				COc1nc(-c2ccccn2)nc2c(C3CCCCC3)csc12 [drawing 3479]	
			25 to 50	76 to 100	51 to 75	O=C(c1csc2c(O)nc(-c3ccccn3)nc12)N1CCNC(c2ccccc2F)C1 (stereo not shown) [drawing 2776]	
25 to 50	51 to 75	51 to 75				COc1cnc(CNC(=O)c2cc3nc(-c4ccccn4)nc(O)c3s2)[nH]c1=O [drawing 3521]	
			51 to 75	51 to 75	51 to 75	Cc1ccc(OC2CCCC2)c(-c2csc3c(O)nc(-c4ccccn4)nc23)c1 [drawing 2844]	
			0	51 to 75	25 to 50	COc1ccnc(-c2nc(O)c3c(C#N)csc3n2)c1 [drawing 2782]	
			25 to 50	25 to 50	25 to 50	Oc1nc(-c2ccccn2)nc2c(-c3ccc(OC4CCOCC4)cc3)csc12 [drawing 2867]	
51 to 75	51 to 75	51 to 75				Oc1nc(-c2ccccn2)nc2c(CC3CCNCC3)csc12 [drawing 3486]	
			1 to 25	51 to 75	51 to 75	O=C(NCCc1ccnc(O)n1)c1csc2nc(-c3ccccn3)nc(N3CCOCC3)c12 [drawing 2898]	

SMILES	inhibition at 20 µM [1, 3] [%]	inhibition at 20 µM (KRas Q61H mutant; [4]) [%]	inhibition at 20 µM [2, 5] [%]	inhibition at 20 µM [1, 6] [%]	inhibition at 20 µM (KRas Q61H mutant; [7]) [%]	inhibition at 20 µM [2, 8] [%]	IC50 ([1]; serial dilution, read-out: KRas G12D Q61H (classes E-H, IC50)) [µM]
Cc1cc2nc(-c3ccccn3)nc(O)c2s1 [drawing 3472]	51 to 75	51 to 75	51 to 75				
Cc1c(C(=O)N2CCN(c3ccccc3)CC2)sc2c(O)nc(-c3ccccn3)nc12 [drawing 3483]	51 to 75	51 to 75	51 to 75				
Oc1nc(-c2ccccn2)nc2c(C3CCCCC3)csc12 [drawing 3511]	25 to 50	51 to 75	25 to 50				
O=C(c1csc2c(O)nc(-c3ccccn3)nc12)N1CCN(Cc2cccc(O)c2)CC1 [drawing 2726]				76 to 100	76 to 100	76 to 100	11 to 30
Cc1ccccc1C1CN(C(=O)c2csc3c(O)nc(-c4ccccn4)nc23)CCN1 (stereo not shown) [drawing 2775]				25 to 50	76 to 100	51 to 75	
